Where two headings read alike, the source gives them in different places.
Tested on: Sprague-Dawley rats
Experiment: Hematology
Format: in vivo, Rattus norvegicus
Design: HCT, Hematocrit: unit not given here
Details: for Emax: Rattus norvegicus; for Basophils / Eosinophils / HB, Hemoglobin / HCT, Hematocrit / Lymphocytes / MCH, Mean corpuscular hemoglobin / MCHC, Mean corpuscular hemoglobin concentration / MCV, Mean corpuscular volume / MPV, Mean platelet volume / Monocytes / Neutrophils / PDW, Platelet distribution width / PLT, Platelet count / RBC, Red cell count / WBC, Leukocyte total count: group mean
Experimental: Basic blood picture analysis was carried out using Advia 120 analyzer (Bayer, later Siemens Diagnostic Division, Dublin, Ireland). This analysis includes red cell count (RBC), hemoglobin (HB), hematocrit (HCT), platelet count (PLT), leukocyte total count (WBC) and differential count as well as the calculated red cell and platelet parameters mean corpuscular volume (MCV), mean corpuscular hemoglobin (MCH), mean corpuscular hemoglobin concentration (MCHC), red cell distribution width - standard deviation (RDW-SD), platelet distribution width (PDW) and mean platelet volume (MPV). Blood cell counting is based on isovolumetric sphering and fixing the cells, stains and light scattering. Visual leukocyte differential counting was done after May-Grünwald-Giemsa staining.
Data were also analyzed using the BMD method, which is based on dose-response modeling of the full data set using a nested family of exponential and Hill models. The analyses were done on data of males and females combined, using sex as a covariate. […] In that case, different Critical Effect Doses (CEDs) and CEDs at the lowest bound of the confidence interval (CED-L) were generated for each sex. If no difference between sexes is detected, a CED and CED-Ls for the combined data is generated. However, this was also done if the curve fits are close, and separate analyses for males and females were then performed manually. CEDs and CED-Ls were calculated at the predefined Critical Effect Size (CES) of 5% (EFSA standard) or 10%.

[1] = F, CES 5%, model E2, adipose tissue concentration based
[2] = F, CES 5%, model E3, adipose tissue concentration based
[3] = F, CES 10%, model E2, adipose tissue concentration based
[4] = F, CES 10%, model E3, adipose tissue concentration based
[5] = M, CES 5%, model E4, adipose tissue concentration based
[6] = M, CES 10%, model E4, adipose tissue concentration based
[7] = females, total dose 3 mg/kg bw, N=5
[8] = females, total dose 10 mg/kg bw, N=5
[9] = females, total dose 30 mg/kg bw, N=5
[10] = females, total dose 100 mg/kg bw, N=5
[11] = females, total dose 300 mg/kg bw, N=5
[12] = females, total dose 1000 mg/kg bw, N=5
[13] = females, total dose 1000 mg/kg bw, N=5, p<0.01 vs. control
[14] = females, total dose 1700 mg/kg bw, N=5

## Clc1cc(Cl)c(-c2cc(Cl)c(Cl)c(Cl)c2Cl)cc1Cl [PCB 180, 2,2′,3′,4,4′,5,5′-heptachlorobiphenyl]
[1]
  CED, Hematocrit: 5430 µg/g lipid
  CED, Hemoglobin: 4840 µg/g lipid
  CED, Red blood cell count: 4170 µg/g lipid
  CED-L, Hematocrit: 4178 µg/g lipid
  CED-L, Hemoglobin: 3889 µg/g lipid
  CED-L, Red blood cell count: 3327 µg/g lipid
[2]
  CED, Red cell distribution width - SD: 8370 µg/g lipid
  CED-L, Red cell distribution width - SD: 5756 µg/g lipid
[3]
  CED, Hematocrit: 11100 µg/g lipid
  CED, Hemoglobin: 9930 µg/g lipid
  CED, Red blood cell count: 8560 µg/g lipid
  CED-L, Hematocrit: 8582 µg/g lipid
  CED-L, Hemoglobin: 7989 µg/g lipid
  CED-L, Red blood cell count: 6834 µg/g lipid
[4]
  CED, Red cell distribution width - SD: 10700 µg/g lipid
  CED-L, Red cell distribution width - SD: 9281 µg/g lipid
[5]
  CED, Hematocrit: 601 µg/g lipid
  CED, Hemoglobin: 872 µg/g lipid
  CED, Platelet count: 156 µg/g lipid
  CED, Red blood cell count: 598 µg/g lipid
  CED-L, Hematocrit: 247 µg/g lipid
  CED-L, Hemoglobin: 227 µg/g lipid
  CED-L, Platelet count: 36.4 µg/g lipid
  CED-L, Red blood cell count: 337 µg/g lipid
[6]
  CED, Hematocrit: 2090 µg/g lipid
  CED, Platelet count: 539 µg/g lipid
  CED, Red blood cell count: 1890 µg/g lipid
Erythrocyte, F, model E2, controls vs high dose according to the fitted model, read-out: Maximum response, Red blood cell count
  Emax: -13%
Erythrocyte, females, controls vs high dose, fitted model, read-out: Red blood cell count, Maximum response
  Emax: -12.8%
Erythrocyte, males, controls vs high dose, fitted model, read-out: Red blood cell count, Maximum response
  Emax: -12.5%
Erythrocyte, model E4, controls vs high dose according to the fitted model, read-out: Maximum response, Red blood cell count
  Emax: -12.4%
F, model E2, controls vs high dose according to the fitted model, read-out: Maximum response, Hematocrit
  Emax: -10.1%
F, model E2, controls vs high dose according to the fitted model, read-out: Maximum response, Hemoglobin
  Emax: -11.3%
F, model E3, controls vs high dose according to the fitted model, read-out: Maximum response, Red cell distribution width - SD
  Emax: 11.1%
Platelet, males, controls vs high dose, fitted model, read-out: Platelet count, Maximum response
  Emax: 12%
Platelet, model E4, controls vs high dose according to the fitted model, read-out: Maximum response, Platelet count
  Emax: 12%
females, controls vs high dose, fitted model, read-out: Hematocrit, Maximum response
  Emax: -10%
females, controls vs high dose, fitted model, read-out: Hemoglobin, Maximum response
  Emax: -11.1%
females, controls vs high dose, fitted model, read-out: Red cell distribution width - SD, Maximum response
  Emax: 11.5%
males, controls vs high dose, fitted model, read-out: Hematocrit, Maximum response
  Emax: -11.8%
males, controls vs high dose, fitted model, read-out: Hemoglobin, Maximum response
  Emax: -8.6%
Model E4, controls vs high dose according to the fitted model, read-out: Maximum response, Hematocrit
  Emax: -11.7%
Model E4, controls vs high dose according to the fitted model, read-out: Maximum response, Hemoglobin
  Emax: -8.59%
[7]
  Basophils: 0.0%
  Eosinophils: 1.2%
  HB, Hemoglobin: 165 g/L
  HCT, Hematocrit: 0.44
  Lymphocytes: 88.4%
  MCH, Mean corpuscular hemoglobin: 23.1 pg
  MCHC, Mean corpuscular hemoglobin concentration: 371 g/L
  MCV, Mean corpuscular volume: 62.3 fL
  MPV, Mean platelet volume: 6.74 fL
  Monocytes: 2.6%
  Neutrophils: 7.8%
  PDW, Platelet distribution width: 7.26 fL
  PLT, Platelet count: 8.17e+11 L⁻¹
  RBC, Red cell count: 7.15e+12 L⁻¹
  WBC, Leukocyte total count: 1.422e+10 L⁻¹
[8]
  Basophils: 0.0%
  Eosinophils: 0.2%
  HB, Hemoglobin: 166 g/L
  HCT, Hematocrit: 0.45
  Lymphocytes: 92.0%
  MCH, Mean corpuscular hemoglobin: 23.0 pg
  MCHC, Mean corpuscular hemoglobin concentration: 372 g/L
  MCV, Mean corpuscular volume: 61.8 fL
  MPV, Mean platelet volume: 6.72 fL
  Monocytes: 2%
  Neutrophils: 5.8%
  PDW, Platelet distribution width: 7.20 fL
  PLT, Platelet count: 8.05e+11 L⁻¹
  RBC, Red cell count: 7.23e+12 L⁻¹
  WBC, Leukocyte total count: 1.276e+10 L⁻¹
[9]
  Basophils: 0.0%
  Eosinophils: 1.6%
  HB, Hemoglobin: 165 g/L
  HCT, Hematocrit: 0.45
  Lymphocytes: 88.8%
  MCH, Mean corpuscular hemoglobin: 22.9 pg
  MCHC, Mean corpuscular hemoglobin concentration: 368 g/L
  MCV, Mean corpuscular volume: 62.2 fL
  MPV, Mean platelet volume: 6.74 fL
  Monocytes: 1.4%
  Neutrophils: 8.2%
  PDW, Platelet distribution width: 7.32 fL
  PLT, Platelet count: 8.47e+11 L⁻¹
  RBC, Red cell count: 7.22e+12 L⁻¹
  WBC, Leukocyte total count: 1.544e+10 L⁻¹
[10]
  Basophils: 0.0%
  Eosinophils: 0.8%
  HB, Hemoglobin: 169 g/L
  HCT, Hematocrit: 0.46
  Lymphocytes: 90.8%
  MCH, Mean corpuscular hemoglobin: 22.8 pg
  MCHC, Mean corpuscular hemoglobin concentration: 370 g/L
  MCV, Mean corpuscular volume: 61.6 fL
  MPV, Mean platelet volume: 6.72 fL
  Monocytes: 1.4%
  Neutrophils: 7.0%
  PDW, Platelet distribution width: 7.14 fL
  PLT, Platelet count: 8.74e+11 L⁻¹
  RBC, Red cell count: 7.4e+12 L⁻¹
  WBC, Leukocyte total count: 1.654e+10 L⁻¹
[11]
  Basophils: 0.0%
  Eosinophils: 1.2%
  HB, Hemoglobin: 166 g/L
  HCT, Hematocrit: 0.45
  Lymphocytes: 90.6%
  MCH, Mean corpuscular hemoglobin: 23.1 pg
  MCHC, Mean corpuscular hemoglobin concentration: 371 g/L
  MCV, Mean corpuscular volume: 62.2 fL
  MPV, Mean platelet volume: 6.98 fL
  Monocytes: 2.2%
  Neutrophils: 6.0%
  PDW, Platelet distribution width: 7.58 fL
  PLT, Platelet count: 8.2e+11 L⁻¹
  RBC, Red cell count: 7.19e+12 L⁻¹
  WBC, Leukocyte total count: 1.448e+10 L⁻¹
[12]
  Basophils: 0.0%
  Eosinophils: 1.2%
  Lymphocytes: 89.8%
  MCH, Mean corpuscular hemoglobin: 23.1 pg
  MCHC, Mean corpuscular hemoglobin concentration: 366 g/L
  MCV, Mean corpuscular volume: 63.2 fL
  MPV, Mean platelet volume: 6.74 fL
  Monocytes: 3.2%
  Neutrophils: 5.8%
  PDW, Platelet distribution width: 7.26 fL
  PLT, Platelet count: 8.69e+11 L⁻¹
  WBC, Leukocyte total count: 1.392e+10 L⁻¹
[13]
  HB, Hemoglobin: 154 g/L
  RBC, Red cell count: 6.66e+12 L⁻¹
females, total dose 1000 mg/kg bw, N=5, p<0.05 vs. control
  HCT, Hematocrit: 0.42
[14]
  Basophils: 0.0%
  Eosinophils: 1.0%
  Lymphocytes: 87.6%
  MCH, Mean corpuscular hemoglobin: 23.3 pg
  MCHC, Mean corpuscular hemoglobin concentration: 366 g/L
  MCV, Mean corpuscular volume: 63.7 fL
  MPV, Mean platelet volume: 6.68 fL
  Monocytes: 2.2%
  Neutrophils: 9.2%
  PDW, Platelet distribution width: 7.18 fL
  PLT, Platelet count: 8.28e+11 L⁻¹
  WBC, Leukocyte total count: 1.35e+10 L⁻¹
females, total dose 1700 mg/kg bw, N=5, p<0.001 vs. control
  HB, Hemoglobin: 150 g/L

From publication PMC4138103 (PLoS ONE, 2014)
